Measured values: US11518750B2, “3-methylideneoxan-4-one compounds and substituted derivatives thereof as inhibitors of telomerase” (NORTHWESTERN UNIVERSITY, priority 2019, dated 2022)

How the values were obtained:
[1] = Liver microsomal stability assay; type: in vitro ADME; settings: in words
Procedure: Liver Microsomal Stability Assay. Assay was conducted using the Corning UltraPool HLM 150 Mixed Gender microsomal kit (Corning Life Sciences) according to the manufacturer's protocol.

VA-13 = experiment: Cell viability, telomerase-negative cells; type: cell-based; settings: VA-13, up to 100 μM
MCF7 cells = experiment: Cell viability (CellTiter-Glo), telomerase-positive cells; type: cell-based, human; settings: Homo sapiens, read-out: IC50, loss of viability
Procedure: Cell Viability Measurements. MCF-7, HeLa, MDA-MB231 and A549 cells were cultured in DMEM media supplemented with 10% Fetal Bovine Serum (FBS), 1% pen/strep and with 5% CO2 and 37° C. Cells were plated in 96 well plates and allowed to attach for 24 h. Media was removed, and fresh media containing various concentrations of compound was added, and the plate was incubated for 24 h. The plate was removed from the incubator and allowed to equilibrate to room temperature for 30 min. 50 μl of freshly prepared CellTiter-Glo (Promega) reagent was added, and the plate was mixed on an orbital shaker for 10 min to induce cell lysis and stabilize luminescent signal. The luminescence was recorded on a PerkinElmer Enspire multimode plate reader.

[2] = Schiff-base measurement with glycine; type: physicochemical; settings: incubation with glycine
Procedure: Schiff-Base Measurement. A 1 mM stock solution of NU-1 in DMSO-d6 was added to a solution of 5 mM solution of glycine in D2O in an NMR tube. The mixture was analyzed by ^1H NMR over 48 hours to analyze formation of Schiff-bases with the ketone of NU-1.

[3] = biological target: T1, telomerase in MCF7 cells in culture (Homo sapiens, UniProt O14746); experiment: TRAP assay in cultured cells; type: cell-based; settings: TRAP assay, MCF7 cells in culture
T1 construct: endogenous in cells; host or cells: MCF-7
Procedure: Telomeric Repeat Amplification Protocol Assay. The telomeric repeat amplification protocol (TRAP) assay was performed using the TRAPeze RT Telomerase Detection Kit (EMD Millipore) and iTaq DNA polymerase (Bio-Rad) according to the manufacturer's protocol.
Cultured Cells TRAP Analysis. MCF-7, HeLa, ACHN, MDA-MB231 and A549 cells were cultured in DMEM media supplemented with 10% Fetal Bovine Serum (FBS), 1% pen/strep and with 5% CO2 and 37° C. Cells were plated in 96 well plates and allowed to attach for 24 h. Media was removed, and fresh media containing various concentrations of compound was added, and the plate was incubated for 24 h. […] The cell extract was then centrifuged at 12,000×g for 20 min at 4° C. to remove cell debris. Note: “fresh” media constitutes media supplemented with 10% Fetal Bovine Serum (FBS) and 1% pen/strep that has not been previously used for cell culture (e.g., not conditioned media). TRAP analysis was conducted as above.

telomerase in MCF7 cells = biological target: T2, telomerase in MCF7 cells (Homo sapiens, UniProt O14746); experiment: Compound washout TRAP analysis; type: cell-based
T2 construct: endogenous in cells; host or cells: MCF-7
Procedure: Compound Washout TRAP analysis. MCF-7 cells were plated in 96 well plates and allowed to attach for 24 h. Media was removed, and fresh media containing various concentrations of compound was added, and the plate was incubated for 24 h. Media was removed, cells were washed 2 times with PBS, and fresh media without compound was added. Cells were incubated at 37° C. for an additional “X” hours. […] The cell extract was then centrifuged at 12,000 g for 20 min at 4° C. to remove cell debris. Note: “fresh” media constitutes media supplemented with 10% Fetal Bovine Serum (FBS) and 1% pen/strep that has not been previously used for cell culture (e.g., not conditioned media”). TRAP analysis was conducted as above.

CYP1A2 = biological target: T3, CYP1A2 (Homo sapiens, UniProt P05177); experiment: CYP450 inhibition assay; type: in vitro ADME; settings: in words
T3 construct: purchased Thermo Fisher
T3 sequence (P05177 1-516): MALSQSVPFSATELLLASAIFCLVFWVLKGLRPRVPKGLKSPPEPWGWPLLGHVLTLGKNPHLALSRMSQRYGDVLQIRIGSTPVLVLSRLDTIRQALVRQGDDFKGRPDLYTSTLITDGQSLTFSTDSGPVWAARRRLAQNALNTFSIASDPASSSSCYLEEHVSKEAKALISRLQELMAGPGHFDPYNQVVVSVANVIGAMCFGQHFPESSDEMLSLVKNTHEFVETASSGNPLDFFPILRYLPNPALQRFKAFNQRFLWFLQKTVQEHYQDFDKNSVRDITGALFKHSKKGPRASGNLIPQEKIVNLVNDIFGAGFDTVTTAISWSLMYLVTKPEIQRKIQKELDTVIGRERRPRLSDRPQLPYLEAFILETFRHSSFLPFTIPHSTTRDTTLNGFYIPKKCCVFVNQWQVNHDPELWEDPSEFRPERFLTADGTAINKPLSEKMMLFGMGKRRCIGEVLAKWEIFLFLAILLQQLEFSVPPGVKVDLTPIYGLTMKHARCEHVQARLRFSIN
Procedure: CYP450 Inhibition Assay. Assay was conducted using the commercially available Vivid CYP1A2 Screening Kit (Thermo Fisher) according to the manufacturer's protocol. α-napthoflavone and DMSO were used as a positive and negative control respectively based on the manufacturer's protocol.

MCF-7 proteome = experiment: Competitive gel imaging with 5-iodoacetamido-fluorescein (competitive ABPP); type: binding, human; settings: 10 nM to 100 μM, 1 hr, then fluorescein-iodoacetamide 10 μM
Procedure: Competitive Gel Image Analysis. MCF-7 cells were cultured in DMEM media supplemented with 10% Fetal Bovine Serum (FBS), 1% pen/strep and with 5% CO2 and 37° C. Cells were plated cultured for 3 days. Flasks were rinsed twice with PBS and treated with 0.05% trypsin-EDTA (Thermo Fisher) to detach cells. The cell suspension was washed twice in PBS and the cell pellet was resuspended in 200 μl of M-PER extraction reagent (Thermo Fisher)/10^6 cells, and incubated for 30 min. Cell extracts were transferred to microcentrifuge tubes, 200 μl/tube, and centrifuged at 12,000×g for 20 min to remove cell debris. The corresponding lysate was then further diluted to a total protein concentration of 2 mg/mL as measured by Nanodrop (Thermo Fisher). 48 μL of MCF-7 lysate was added to twelve microcentrifuge tubes (six per compound), followed by treatment of cell lysate with 1 μL solution of NU-1/chrolactomycin (equating to doses ranging from 10 nM to 100 μM). The samples were incubated for 1 hr, followed by addition of 1 μl of 5-iodoacetamido-fluorescein to a final concentration of 10 μM. The samples were again incubated for 1 hr, followed by quenching the reaction with 15 μL NuPAGE LDS Sample Buffer (4×). […]

T2 sequence (O14746 whole entry): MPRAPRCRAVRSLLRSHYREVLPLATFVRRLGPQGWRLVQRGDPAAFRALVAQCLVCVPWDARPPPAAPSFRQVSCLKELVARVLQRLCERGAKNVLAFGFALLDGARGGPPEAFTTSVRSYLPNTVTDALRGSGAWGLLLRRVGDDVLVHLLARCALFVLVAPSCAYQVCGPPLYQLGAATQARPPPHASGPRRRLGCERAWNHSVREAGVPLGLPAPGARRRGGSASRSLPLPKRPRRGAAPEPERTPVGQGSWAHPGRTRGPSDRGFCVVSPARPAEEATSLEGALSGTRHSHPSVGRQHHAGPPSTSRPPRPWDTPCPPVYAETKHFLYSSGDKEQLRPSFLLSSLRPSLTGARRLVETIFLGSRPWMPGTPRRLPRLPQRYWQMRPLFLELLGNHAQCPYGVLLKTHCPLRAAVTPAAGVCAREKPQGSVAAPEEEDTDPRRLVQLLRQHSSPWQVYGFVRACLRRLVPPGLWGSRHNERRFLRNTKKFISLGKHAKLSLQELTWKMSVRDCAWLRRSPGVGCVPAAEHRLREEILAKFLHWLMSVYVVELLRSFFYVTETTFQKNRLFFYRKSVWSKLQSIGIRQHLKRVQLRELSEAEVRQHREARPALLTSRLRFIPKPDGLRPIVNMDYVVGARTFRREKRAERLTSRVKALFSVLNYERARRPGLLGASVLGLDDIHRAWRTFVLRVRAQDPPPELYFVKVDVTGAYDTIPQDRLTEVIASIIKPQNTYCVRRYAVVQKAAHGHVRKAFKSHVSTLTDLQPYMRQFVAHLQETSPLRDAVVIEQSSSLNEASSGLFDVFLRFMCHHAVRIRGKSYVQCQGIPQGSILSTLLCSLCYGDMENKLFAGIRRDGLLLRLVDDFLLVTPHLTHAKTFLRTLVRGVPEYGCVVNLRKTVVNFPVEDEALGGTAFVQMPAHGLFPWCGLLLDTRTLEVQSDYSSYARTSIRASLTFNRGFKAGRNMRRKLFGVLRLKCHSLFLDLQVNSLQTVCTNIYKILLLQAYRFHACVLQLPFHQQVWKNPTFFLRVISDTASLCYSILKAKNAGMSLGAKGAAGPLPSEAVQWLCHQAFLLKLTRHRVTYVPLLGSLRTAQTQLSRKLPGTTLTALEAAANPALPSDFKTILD
T2 sequence (O60832 whole entry partner): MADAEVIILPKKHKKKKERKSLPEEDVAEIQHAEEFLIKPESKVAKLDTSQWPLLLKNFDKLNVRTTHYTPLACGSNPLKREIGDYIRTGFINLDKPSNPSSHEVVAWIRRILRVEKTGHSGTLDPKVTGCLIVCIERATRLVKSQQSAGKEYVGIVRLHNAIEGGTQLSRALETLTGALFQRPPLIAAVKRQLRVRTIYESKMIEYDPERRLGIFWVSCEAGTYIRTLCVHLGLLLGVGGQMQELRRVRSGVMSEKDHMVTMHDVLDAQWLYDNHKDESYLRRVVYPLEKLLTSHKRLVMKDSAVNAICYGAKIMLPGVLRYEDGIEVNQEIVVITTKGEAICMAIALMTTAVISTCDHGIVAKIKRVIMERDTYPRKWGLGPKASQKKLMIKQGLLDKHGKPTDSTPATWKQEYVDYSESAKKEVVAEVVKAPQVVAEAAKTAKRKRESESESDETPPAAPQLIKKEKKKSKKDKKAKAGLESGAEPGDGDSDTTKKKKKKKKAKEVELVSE
T2 sequence (Q9NPE3 whole entry partner): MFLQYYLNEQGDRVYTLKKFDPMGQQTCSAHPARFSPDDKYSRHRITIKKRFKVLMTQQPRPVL
T2 sequence (Q9NX24 whole entry partner): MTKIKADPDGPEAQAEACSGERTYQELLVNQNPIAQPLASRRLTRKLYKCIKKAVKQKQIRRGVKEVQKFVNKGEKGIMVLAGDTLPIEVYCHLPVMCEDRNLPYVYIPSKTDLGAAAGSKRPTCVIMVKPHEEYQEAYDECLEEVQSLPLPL
T2 sequence (Q9NY12 whole entry partner): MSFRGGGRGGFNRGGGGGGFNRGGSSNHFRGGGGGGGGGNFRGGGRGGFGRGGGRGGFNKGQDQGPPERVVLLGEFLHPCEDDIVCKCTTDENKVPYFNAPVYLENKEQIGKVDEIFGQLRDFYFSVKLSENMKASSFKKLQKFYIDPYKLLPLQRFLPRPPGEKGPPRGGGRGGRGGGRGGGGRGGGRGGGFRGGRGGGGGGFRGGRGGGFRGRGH
T2 sequence (Q9BUR4 whole entry partner): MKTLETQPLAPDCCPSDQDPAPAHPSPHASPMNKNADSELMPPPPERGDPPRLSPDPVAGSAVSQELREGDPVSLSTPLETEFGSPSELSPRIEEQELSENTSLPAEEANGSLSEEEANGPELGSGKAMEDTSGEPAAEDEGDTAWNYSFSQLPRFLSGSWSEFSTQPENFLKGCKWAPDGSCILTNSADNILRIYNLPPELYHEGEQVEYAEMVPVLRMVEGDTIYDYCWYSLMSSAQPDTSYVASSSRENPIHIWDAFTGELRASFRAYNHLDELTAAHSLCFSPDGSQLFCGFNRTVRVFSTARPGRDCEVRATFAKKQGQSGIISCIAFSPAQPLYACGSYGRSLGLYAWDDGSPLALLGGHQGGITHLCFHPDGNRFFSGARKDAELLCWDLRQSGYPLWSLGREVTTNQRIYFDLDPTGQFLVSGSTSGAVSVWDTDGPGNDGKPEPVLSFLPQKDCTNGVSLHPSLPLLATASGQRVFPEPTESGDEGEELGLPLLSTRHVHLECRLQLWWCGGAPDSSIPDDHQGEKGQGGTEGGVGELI
T1 sequence (O14746 whole entry): as the sequence (O14746 whole entry) above
T1 sequence (O60832 whole entry partner): as the sequence (O60832 whole entry partner) above
T1 sequence (Q9NPE3 whole entry partner): as the sequence (Q9NPE3 whole entry partner) above
T1 sequence (Q9NX24 whole entry partner): as the sequence (Q9NX24 whole entry partner) above
T1 sequence (Q9NY12 whole entry partner): as the sequence (Q9NY12 whole entry partner) above
T1 sequence (Q9BUR4 whole entry partner): as the sequence (Q9BUR4 whole entry partner) above

microsomal stability [1]: satisfactory performance | IC50 (MCF7 cells): 27 µM | ketone-Schiff base formation [2]: no ketone-Schiff base formation | IC50 [3]: 0.27 µM | telomerase activity after washout (telomerase in MCF7 cells; MCF7 cells washed, 4 h recovery): remained blocked | telomerase activity after washout (telomerase in MCF7 cells; washed, fresh media, 24 h): did not restore | CYP450 inhibition profile (CYP1A2): favorable
SMILES: C=C1C(=O)[C@](C)(C(=O)OC)[C@H](CCc2cn(Cc3ccc(F)cc3F)nn2)O[C@@H]1C [NU-1, methyl (2S,3R,6R)-2-(2-(1-(2,4-difluorobenzyl)-1H-1,2,3-triazol-4-yl)ethyl)-3,6-dimethyl-5 methylene-4-oxotetrahydro-2H-pyran-3-carboxylate]
effect on viability (VA-13): did not affect viability | off-target protein labeling (loss of protein banding) (MCF-7 proteome): minimal loss of protein banding and streaking
